Measured values published in publication PMC5218480 (PLoS ONE, 2017).

System: MV-4-11 cells
Assay: Gene expression microarray analysis (Affymetrix PrimeView) and GSEA
Type: cell-based, human
Parameters: RFU PODN (11730768_x_at) / Fold change /veh PODN (11730768_x_at) / RFU LINC00158 (11744669_a_at) / Fold change /veh LINC00158 (11744669_a_at) / RFU DUSP10 (11751237_a_at) / Fold change /veh DUSP10 (11751237_a_at) / RFU ID3 (11757404_x_at) / Fold change /veh ID3 (11757404_x_at) / RFU PLEKHG5 (11737974_s_at) / Fold change /veh PLEKHG5 (11737974_s_at) / RFU LRRC4B (11730491_at) / Fold change /veh LRRC4B (11730491_at) / RFU GIMAP4 (11747438_a_at) / Fold change /veh GIMAP4 (11747438_a_at) / RFU KRT8 (11758183_x_at) / Fold change /veh KRT8 (11758183_x_at) / RFU CNN1 (11734310_a_at) / Fold change /veh CNN1 (11734310_a_at) / RFU VPS37D (11726825_at) / Fold change /veh VPS37D (11726825_at) / RFU C10orf10 (11716522_x_at) / Fold change /veh C10orf10 (11716522_x_at) / RFU KIR2DL2 /// KIR2DL4 /// KIR2DL5A /// KIR2DL5B /// KIR2DS1 /// KIR2DS2 /// KIR2DS3 /// KIR2DS4 /// KIR3DL3 /// KIR3DL3 /// KIR3DS1 (11738374_at) / Fold change /veh KIR2DL2 /// KIR2DL4 /// KIR2DL5A /// KIR2DL5B /// KIR2DS1 /// KIR2DS2 /// KIR2DS3 /// KIR2DS4 /// KIR3DL3 /// KIR3DL3 /// KIR3DS1 (11738374_at) / RFU C1QL1 (11718748_at) / Fold change /veh C1QL1 (11718748_at) / RFU TMPRSS4 (11747572_a_at) / Fold change /veh TMPRSS4 (11747572_a_at) / RFU HAMP (11756126_x_at) / Fold change /veh HAMP (11756126_x_at) / RFU RNFT2 (11725882_a_at) / Fold change /veh RNFT2 (11725882_a_at) / RFU NR4A2 (11747474_a_at) / Fold change /veh NR4A2 (11747474_a_at) / RFU ABCC12 (11746883_a_at) / Fold change /veh ABCC12 (11746883_a_at) / RFU TMEM136 (11760407_x_at) / Fold change /veh TMEM136 (11760407_x_at) / RFU CLDN22 /// WWC2 (11732394_at) / Fold change /veh CLDN22 /// WWC2 (11732394_at) / RFU HLA-DPB1 (11760878_x_at) / Fold change /veh HLA-DPB1 (11760878_x_at) / RFU SPINT1 (11716480_a_at) / Fold change /veh SPINT1 (11716480_a_at) / RFU GAP43 (11754022_s_at) / Fold change /veh GAP43 (11754022_s_at) / RFU A4GNT (11735810_at) / Fold change /veh A4GNT (11735810_at) / RFU PRB3 (11715151_x_at) / Fold change /veh PRB3 (11715151_x_at) / RFU TUBB4B (11761932_at) / Fold change /veh TUBB4B (11761932_at) / RFU CAPN14 (11732068_a_at) / Fold change /veh CAPN14 (11732068_a_at) / RFU TMCC2 (11721928_a_at) / Fold change /veh TMCC2 (11721928_a_at) / RFU IRGQ (11745062_a_at) / Fold change /veh IRGQ (11745062_a_at) / RFU FAM174B (11720279_a_at) / Fold change /veh FAM174B (11720279_a_at) / RFU TMPRSS4 (11748680_a_at) / Fold change /veh TMPRSS4 (11748680_a_at) / RFU FAM212B (11763350_a_at) / Fold change /veh FAM212B (11763350_a_at) / RFU PLEKHG5 (11743358_a_at) / Fold change /veh PLEKHG5 (11743358_a_at) / RFU ZSCAN30 (11745921_a_at) / Fold change /veh ZSCAN30 (11745921_a_at) / RFU CMKLR1 (11741424_a_at) / Fold change /veh CMKLR1 (11741424_a_at) / RFU LOC101060620 /// MAPK8IP1 (11723275_at) / Fold change /veh LOC101060620 /// MAPK8IP1 (11723275_at) / RFU SPTSSB (11747773_x_at) / Fold change /veh SPTSSB (11747773_x_at) / RFU PRSS12 (11739890_at) / Fold change /veh PRSS12 (11739890_at) / RFU BIN1 (11741810_x_at) / Fold change /veh BIN1 (11741810_x_at) / RFU WNT11 (11732464_a_at) / Fold change /veh WNT11 (11732464_a_at) / RFU C10orf10 (11716521_a_at) / Fold change /veh C10orf10 (11716521_a_at) / RFU C5orf56 (11738089_at) / Fold change /veh C5orf56 (11738089_at) / RFU CYB561 (11721691_x_at) / Fold change /veh CYB561 (11721691_x_at) / RFU ANKRD19P (11752326_a_at) / Fold change /veh ANKRD19P (11752326_a_at) / RFU OR2T12 /// OR2T33 /// OR2T8 (11738714_s_at) / Fold change /veh OR2T12 /// OR2T33 /// OR2T8 (11738714_s_at) / RFU VCAN (11748164_a_at) / Fold change /veh VCAN (11748164_a_at) / RFU JSRP1 (11732532_at) / Fold change /veh JSRP1 (11732532_at) / RFU KRTAP10-11 (11738290_x_at) / Fold change /veh KRTAP10-11 (11738290_x_at) / RFU MYO3A (11730013_a_at) / Fold change /veh MYO3A (11730013_a_at) / RFU EBF3 (11725865_a_at) / Fold change /veh EBF3 (11725865_a_at) / RFU CAMK2N1 (11719241_x_at) / Fold change /veh CAMK2N1 (11719241_x_at) / RFU C5orf56 (11738088_a_at) / Fold change /veh C5orf56 (11738088_a_at) / RFU OLFML3 (11715873_a_at) / Fold change /veh OLFML3 (11715873_a_at) / RFU LOC100653217 /// NTM (11731650_a_at) / Fold change /veh LOC100653217 /// NTM (11731650_a_at) / RFU MAPK11 (11762145_a_at) / Fold change /veh MAPK11 (11762145_a_at) / RFU FIZ1 (11724087_x_at) / Fold change /veh FIZ1 (11724087_x_at) / RFU OASL (11726364_x_at) / Fold change /veh OASL (11726364_x_at) / RFU SOX15 (11748057_x_at) / Fold change /veh SOX15 (11748057_x_at) / RFU CD79A (11719716_a_at) / Fold change /veh CD79A (11719716_a_at) / RFU HIST1H1D (11736915_at) / Fold change /veh HIST1H1D (11736915_at) / RFU CASKIN2 (11723855_a_at) / Fold change /veh CASKIN2 (11723855_a_at) / RFU LOC730098 (11760151_x_at) / Fold change /veh LOC730098 (11760151_x_at) / RFU OR4N2 (11742367_at) / Fold change /veh OR4N2 (11742367_at) / RFU PRRT2 (11749266_a_at) / Fold change /veh PRRT2 (11749266_a_at) / RFU SNX32 (11753110_a_at) / Fold change /veh SNX32 (11753110_a_at) / RFU CDHR5 (11726645_a_at) / Fold change /veh CDHR5 (11726645_a_at) / RFU RCAN1 (11760418_a_at) / Fold change /veh RCAN1 (11760418_a_at) / RFU FAM167A (11723789_a_at) / Fold change /veh FAM167A (11723789_a_at) / RFU FAM26E (11764081_at) / Fold change /veh FAM26E (11764081_at) / RFU ISYNA1 (11749810_s_at) / Fold change /veh ISYNA1 (11749810_s_at) / RFU ACY1 (11761880_at) / Fold change /veh ACY1 (11761880_at) / RFU 11764098_at / Fold change /veh 11764098_at / RFU SAMD14 (11745864_x_at) / Fold change /veh SAMD14 (11745864_x_at) / RFU NPB (11741838_a_at) / Fold change /veh NPB (11741838_a_at) / RFU TMPRSS6 (11731388_a_at) / Fold change /veh TMPRSS6 (11731388_a_at) / RFU KRTAP10-2 (11738614_at) / Fold change /veh KRTAP10-2 (11738614_at) / RFU ARHGAP8 /// PRR5-ARHGAP8 (11727945_x_at) / Fold change /veh ARHGAP8 /// PRR5-ARHGAP8 (11727945_x_at) / RFU KRTAP5-7 /// NADSYN1 (11734609_at) / Fold change /veh KRTAP5-7 /// NADSYN1 (11734609_at) / RFU RASL12 (11751679_a_at) / Fold change /veh RASL12 (11751679_a_at) / RFU CDKN2B (11736163_a_at) / Fold change /veh CDKN2B (11736163_a_at) / RFU PRF1 (11729649_at) / Fold change /veh PRF1 (11729649_at) / RFU, ZNF638 /// ZNF638-IT1 / Fold change vs veh, ZNF638 /// ZNF638-IT1 / RFU, PANK3 / Fold change vs veh, PANK3 / RFU, SH3YL1 / Fold change vs veh, SH3YL1 / RFU, ZEB2 / Fold change vs veh, ZEB2 / RFU, NRIP1 / Fold change vs veh, NRIP1 / RFU, PTTG1IP / Fold change vs veh, PTTG1IP / RFU, CAPN2 / Fold change vs veh, CAPN2 / RFU, MED14 / Fold change vs veh, MED14 / RFU, SNORA58 / Fold change vs veh, SNORA58 / RFU, C1orf63 / Fold change vs veh, C1orf63 / RFU, LRRFIP1 / Fold change vs veh, LRRFIP1 / RFU, NDUFAF7 / Fold change vs veh, NDUFAF7 / RFU, SLC12A2 / Fold change vs veh, SLC12A2 / RFU, IBTK / Fold change vs veh, IBTK / RFU, ESF1 / Fold change vs veh, ESF1 / Fold change vs veh, TMEM50B / RFU, TAOK1 / Fold change vs veh, TAOK1 / RFU, ACBD3 / Fold change vs veh, ACBD3 / RFU, TMA16 / Fold change vs veh, TMA16 / RFU, RWDD3 / Fold change vs veh, RWDD3 / RFU, BCAT1 / Fold change vs veh, BCAT1 / RFU, EDEM3 / Fold change vs veh, EDEM3 / RFU, TMEM33 / Fold change vs veh, TMEM33 / RFU, WDR75 / Fold change vs veh, WDR75 / RFU, AHCTF1 / Fold change vs veh, AHCTF1 / RFU, TFRC / Fold change vs veh, TFRC / RFU, ZDHHC17 / Fold change vs veh, ZDHHC17 / RFU, NOM1 / Fold change vs veh, NOM1 / RFU, ARL8B / Fold change vs veh, ARL8B / RFU, ZBTB11 / Fold change vs veh, ZBTB11 / RFU, TAMM41 / Fold change vs veh, TAMM41 / RFU, KIAA1704 /// LOC100996395 / Fold change vs veh, KIAA1704 /// LOC100996395 / RFU, ING1 / Fold change vs veh, ING1 / RFU, TRMT61B / Fold change vs veh, TRMT61B / RFU, FUBP3 / Fold change vs veh, FUBP3 / RFU, TP53 / Fold change vs veh, TP53 / RFU, TNKS2 / Fold change vs veh, TNKS2 / RFU, ZFP14 / Fold change vs veh, ZFP14 / RFU, ACTR2 / Fold change vs veh, ACTR2 / RFU, PPP3R1 / Fold change vs veh, PPP3R1 / RFU, PIK3R1 / Fold change vs veh, PIK3R1 / RFU, HNRNPA1 / Fold change vs veh, HNRNPA1 / RFU, RNF170 / Fold change vs veh, RNF170 / RFU, ZNF28 / Fold change vs veh, ZNF28 / RFU, RNGTT / Fold change vs veh, RNGTT / RFU, OGT / Fold change vs veh, OGT / RFU, BRD1 / Fold change vs veh, BRD1 / RFU, MARS / Fold change vs veh, MARS / RFU, ZNF655 / Fold change vs veh, ZNF655 / RFU, FAHD1 / Fold change vs veh, FAHD1 / RFU, BDP1 / Fold change vs veh, BDP1 / RFU, LRRCC1 / Fold change vs veh, LRRCC1 / RFU, ARID1A / Fold change vs veh, ARID1A / RFU, ZNF146 / Fold change vs veh, ZNF146 / RFU, ZNF330 / Fold change vs veh, ZNF330 / RFU, GPN3 / Fold change vs veh, GPN3 / RFU, C9orf123 / Fold change vs veh, C9orf123 / RFU, N4BP2L2 / Fold change vs veh, N4BP2L2 / RFU, ARFIP1 / Fold change vs veh, ARFIP1 / RFU, FAM179B / Fold change vs veh, FAM179B / RFU, BCL10 / Fold change vs veh, BCL10 / RFU, UHRF1BP1L / Fold change vs veh, UHRF1BP1L / RFU, BET1 / Fold change vs veh, BET1 / RFU, CNOT2 / Fold change vs veh, CNOT2 / RFU, ZNF268 / Fold change vs veh, ZNF268 / Fold change vs veh, ZNF507 / RFU, DGCR2 / Fold change vs veh, DGCR2 / RFU, WDSUB1 / Fold change vs veh, WDSUB1 / Fold change vs veh, HSP90B1 /// MIR3652 / RFU, ADSS / Fold change vs veh, ADSS / RFU, GK / Fold change vs veh, GK / RFU, ZNF148 / Fold change vs veh, ZNF148 / RFU, TAF9 / Fold change vs veh, TAF9 / RFU, SLC1A5 / Fold change vs veh, SLC1A5 / RFU, SLMO2 / Fold change vs veh, SLMO2 / RFU, ABCC4 / Fold change vs veh, ABCC4 / RFU, LOC101060439 /// RAP1B / Fold change vs veh, LOC101060439 /// RAP1B / RFU, RFX7 / Fold change vs veh, RFX7 / RFU, GTPBP10 / Fold change vs veh, GTPBP10 / RFU, CNEP1R1 / Fold change vs veh, CNEP1R1 / RFU, BIVM-ERCC5 /// ERCC5 / Fold change vs veh, BIVM-ERCC5 /// ERCC5 / RFU, ILF3 / Fold change vs veh, ILF3 / RFU 11762660_at / Fold change /veh 11762660_at / RFU VCAN (11757783_s_at) / Fold change /veh VCAN (11757783_s_at) / RFU DDX43 (11728927_at) / Fold change /veh DDX43 (11728927_at) / RFU KRT8 (11758188_x_at) / Fold change /veh KRT8 (11758188_x_at) / RFU NKD1 (11759106_at) / Fold change /veh NKD1 (11759106_at) / RFU SRD5A1 (11742802_a_at) / Fold change /veh SRD5A1 (11742802_a_at) / RFU TPSAB1 /// TPSB2 (11721975_s_at) / Fold change /veh TPSAB1 /// TPSB2 (11721975_s_at) / RFU GSTM3 (11746129_a_at) / Fold change /veh GSTM3 (11746129_a_at) / RFU IL23R (11737362_x_at) / Fold change /veh IL23R (11737362_x_at) / RFU TMEM51 (11727254_a_at) / Fold change /veh TMEM51 (11727254_a_at) / RFU PIWIL2 (11732686_x_at) / Fold change /veh PIWIL2 (11732686_x_at) / RFU ORM1 (11744905_x_at) / Fold change /veh ORM1 (11744905_x_at) / RFU CCDC152 (11743942_at) / Fold change /veh CCDC152 (11743942_at) / RFU ECM1 (11717891_a_at) / Fold change /veh ECM1 (11717891_a_at) / RFU IL23R (11748794_a_at) / Fold change /veh IL23R (11748794_a_at) / RFU TNFAIP8L3 (11732012_x_at) / Fold change /veh TNFAIP8L3 (11732012_x_at) / RFU MBOAT4 (11741988_at) / Fold change /veh MBOAT4 (11741988_at) / RFU 11764193_at / Fold change /veh 11764193_at / RFU TMEM53 (11763286_at) / Fold change /veh TMEM53 (11763286_at) / RFU MAGEB2 (11727129_at) / Fold change /veh MAGEB2 (11727129_at) / RFU TMEM200A (11744735_a_at) / Fold change /veh TMEM200A (11744735_a_at) / RFU CCDC152 (11751479_a_at) / Fold change /veh CCDC152 (11751479_a_at) / RFU FAM211A (11726209_a_at) / Fold change /veh FAM211A (11726209_a_at) / RFU RGS16 (11746705_a_at) / Fold change /veh RGS16 (11746705_a_at) / RFU VCAN (11755009_s_at) / Fold change /veh VCAN (11755009_s_at) / RFU RHOB (11743442_s_at) / Fold change /veh RHOB (11743442_s_at) / RFU RGS16 (11720943_a_at) / Fold change /veh RGS16 (11720943_a_at) / RFU RGS16 (11720944_at) / Fold change /veh RGS16 (11720944_at) / RFU, VPS4B / Fold change vs veh, VPS4B / RFU, CREB1 / Fold change vs veh, CREB1 / RFU, DNAJC13 / Fold change vs veh, DNAJC13 / RFU, GNAQ / Fold change vs veh, GNAQ / RFU, CDK5R1 / Fold change vs veh, CDK5R1 / RFU, ZRANB3 / Fold change vs veh, ZRANB3 / RFU, CUL4A / Fold change vs veh, CUL4A / RFU, CCNY / Fold change vs veh, CCNY / RFU, UFL1 / Fold change vs veh, UFL1 / RFU, COG3 / Fold change vs veh, COG3 / RFU, DIAPH2 / Fold change vs veh, DIAPH2 / RFU, SKA2 / Fold change vs veh, SKA2 / RFU, AFF3 / Fold change vs veh, AFF3 / RFU, LMF1 / Fold change vs veh, LMF1 / RFU, IPO11 / Fold change vs veh, IPO11 / RFU, DFFB / Fold change vs veh, DFFB / RFU, FOXP1 / Fold change vs veh, FOXP1 / RFU, CARD8 / Fold change vs veh, CARD8 / RFU, STRN3 / Fold change vs veh, STRN3 / RFU, ADK / Fold change vs veh, ADK / RFU, RASSF2 / Fold change vs veh, RASSF2 / RFU, WIPF1 / Fold change vs veh, WIPF1 / RFU, LARP1B / Fold change vs veh, LARP1B / RFU, RASA1 / Fold change vs veh, RASA1 / RFU, RB1 / Fold change vs veh, RB1 / RFU, PPFIA1 / Fold change vs veh, PPFIA1 / RFU, MAT2A / Fold change vs veh, MAT2A / RFU, CCT5 / Fold change vs veh, CCT5 / RFU, WDR92 / Fold change vs veh, WDR92 / RFU, CUX1 / Fold change vs veh, CUX1 / RFU, TTC7A / Fold change vs veh, TTC7A / RFU, TMEM135 / Fold change vs veh, TMEM135 / RFU, DEPTOR / Fold change vs veh, DEPTOR / RFU, CPM / Fold change vs veh, CPM / RFU, DNAJB6 / Fold change vs veh, DNAJB6 / RFU, CACNA2D3 / Fold change vs veh, CACNA2D3 / RFU, DTX4 / Fold change vs veh, DTX4 / RFU, TFCP2 / Fold change vs veh, TFCP2 / RFU, GMCL1 /// GMCL1P1 / Fold change vs veh, GMCL1 /// GMCL1P1 / RFU, AEBP2 / Fold change vs veh, AEBP2 / RFU, SNHG1 /// SNORD22 /// SNORD25 /// SNORD26 /// SNORD27 /// SNORD28 /// SNORD29 /// SNORD31 / Fold change vs veh, SNHG1 /// SNORD22 /// SNORD25 /// SNORD26 /// SNORD27 /// SNORD28 /// SNORD29 /// SNORD31 / Fold change (Aza/veh), C12orf56 (ProbeSet 11735607_a_at) / Fold change (ACY-1035/veh), C12orf56 (ProbeSet 11735607_a_at) / Fold change (Aza/veh), FGFR1OP (ProbeSet 11751329_s_at) / Fold change (ACY-1035/veh), FGFR1OP (ProbeSet 11751329_s_at) / Fold change (Aza/veh), VPS36 (ProbeSet 11739960_a_at) / Fold change (ACY-1035/veh), VPS36 (ProbeSet 11739960_a_at) / RFU SYPL1 (11715823_x_at) / Fold change /veh SYPL1 (11715823_x_at) / RFU IGFBP7 (11715501_s_at) / Fold change /veh IGFBP7 (11715501_s_at) / RFU REEP3 (11722064_at) / Fold change /veh REEP3 (11722064_at) / RFU IGLL1 (11728026_x_at) / Fold change /veh IGLL1 (11728026_x_at): dose or concentration left out as unconfirmed
Conditions: ProbeSet 11731610_x_at; LIST B

Nc1ncn([C@@H]2O[C@H](CO)[C@@H](O)[C@H]2O)c(=O)n1 [azacitidine]
Fold change vs veh, KIAA1704 /// LOC100996395: 1.05
